Assay results taken from patent US20200390899A1, “AMINOBENZAZEPINE COMPOUNDS, IMMUNOCONJUGATES, AND USES THEREOF” (BOLT BIOTHERAPEUTICS, INC., priority 2019, published 2020).
Read-outs that look alike come from different tables or passages of the source.

What was measured:
human TLR7 = target: T1, human TLR7 (Homo sapiens, UniProt Q9NYK1); experiment: HEK293 NFKB reporter assay, human TLR7; format: cell-based; conditions: HEK293 reporter cells expressing human TLR7, read-out: HEK293 hTLR7 EC50
T1 construct: host or cells: HEK293 reporter cells
T1 sequence (Q9NYK1 27-1049): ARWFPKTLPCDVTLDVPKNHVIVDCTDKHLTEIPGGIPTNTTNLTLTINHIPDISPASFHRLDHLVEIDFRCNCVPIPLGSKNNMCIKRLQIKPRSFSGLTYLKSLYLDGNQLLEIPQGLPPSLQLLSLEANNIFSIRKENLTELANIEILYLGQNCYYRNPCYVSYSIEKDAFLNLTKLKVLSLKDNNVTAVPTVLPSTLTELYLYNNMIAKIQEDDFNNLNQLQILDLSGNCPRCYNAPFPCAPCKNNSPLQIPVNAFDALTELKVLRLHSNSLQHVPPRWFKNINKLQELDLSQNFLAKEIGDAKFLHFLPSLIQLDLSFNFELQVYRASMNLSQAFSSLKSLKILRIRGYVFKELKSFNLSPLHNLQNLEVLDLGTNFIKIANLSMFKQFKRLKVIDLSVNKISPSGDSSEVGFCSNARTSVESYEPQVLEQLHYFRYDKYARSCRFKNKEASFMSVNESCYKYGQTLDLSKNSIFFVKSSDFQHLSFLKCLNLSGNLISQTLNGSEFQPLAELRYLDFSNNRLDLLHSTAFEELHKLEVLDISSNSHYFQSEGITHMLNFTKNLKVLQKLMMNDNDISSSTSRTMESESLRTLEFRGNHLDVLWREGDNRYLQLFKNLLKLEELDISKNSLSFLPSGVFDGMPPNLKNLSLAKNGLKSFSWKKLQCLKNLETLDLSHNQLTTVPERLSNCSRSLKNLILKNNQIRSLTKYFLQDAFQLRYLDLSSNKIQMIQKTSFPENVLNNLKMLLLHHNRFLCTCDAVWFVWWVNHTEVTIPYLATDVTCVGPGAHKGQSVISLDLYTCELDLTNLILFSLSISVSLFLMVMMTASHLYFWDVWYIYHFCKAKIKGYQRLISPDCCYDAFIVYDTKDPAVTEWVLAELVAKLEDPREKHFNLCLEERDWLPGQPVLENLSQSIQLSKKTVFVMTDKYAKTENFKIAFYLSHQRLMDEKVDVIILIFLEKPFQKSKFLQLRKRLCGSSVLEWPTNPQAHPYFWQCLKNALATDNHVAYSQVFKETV
Procedure: (§1) Each compound was synthesized and purified by the methods in the Examples provided herein, characterized by mass spectrometry, and shown to have the mass indicated. Activity against HEK293 NFKB reporter cells expressing human TLR7 or human TLR8 was measured according to Example 68.
(§2) HEK293 reporter cells expressing human TLR7 or human TLR8 were purchased from Invivogen and vendor protocols were followed for cellular propagation and experimentation. Briefly, cells were grown to 80-85% confluence at 5% CO2 in DMEM supplemented with 10% FBS, Zeocin, and Blasticidin. Cells were then seeded in 96-well flat plates at 4×10^4cells/well with substrate containing HEK detection medium and immunostimulatory molecules. Activity was measured using a plate reader at 620-655 nm wavelength.

human TLR8 = target: T2, human TLR8 (Homo sapiens, UniProt Q9NR97); experiment: HEK293 NFKB reporter assay, human TLR8; format: cell-based; conditions: HEK293 reporter cells expressing human TLR8, read-out: HEK293 hTLR8 EC50
T2 construct: host or cells: HEK293 reporter cells
T2 sequence (Q9NR97 27-1041): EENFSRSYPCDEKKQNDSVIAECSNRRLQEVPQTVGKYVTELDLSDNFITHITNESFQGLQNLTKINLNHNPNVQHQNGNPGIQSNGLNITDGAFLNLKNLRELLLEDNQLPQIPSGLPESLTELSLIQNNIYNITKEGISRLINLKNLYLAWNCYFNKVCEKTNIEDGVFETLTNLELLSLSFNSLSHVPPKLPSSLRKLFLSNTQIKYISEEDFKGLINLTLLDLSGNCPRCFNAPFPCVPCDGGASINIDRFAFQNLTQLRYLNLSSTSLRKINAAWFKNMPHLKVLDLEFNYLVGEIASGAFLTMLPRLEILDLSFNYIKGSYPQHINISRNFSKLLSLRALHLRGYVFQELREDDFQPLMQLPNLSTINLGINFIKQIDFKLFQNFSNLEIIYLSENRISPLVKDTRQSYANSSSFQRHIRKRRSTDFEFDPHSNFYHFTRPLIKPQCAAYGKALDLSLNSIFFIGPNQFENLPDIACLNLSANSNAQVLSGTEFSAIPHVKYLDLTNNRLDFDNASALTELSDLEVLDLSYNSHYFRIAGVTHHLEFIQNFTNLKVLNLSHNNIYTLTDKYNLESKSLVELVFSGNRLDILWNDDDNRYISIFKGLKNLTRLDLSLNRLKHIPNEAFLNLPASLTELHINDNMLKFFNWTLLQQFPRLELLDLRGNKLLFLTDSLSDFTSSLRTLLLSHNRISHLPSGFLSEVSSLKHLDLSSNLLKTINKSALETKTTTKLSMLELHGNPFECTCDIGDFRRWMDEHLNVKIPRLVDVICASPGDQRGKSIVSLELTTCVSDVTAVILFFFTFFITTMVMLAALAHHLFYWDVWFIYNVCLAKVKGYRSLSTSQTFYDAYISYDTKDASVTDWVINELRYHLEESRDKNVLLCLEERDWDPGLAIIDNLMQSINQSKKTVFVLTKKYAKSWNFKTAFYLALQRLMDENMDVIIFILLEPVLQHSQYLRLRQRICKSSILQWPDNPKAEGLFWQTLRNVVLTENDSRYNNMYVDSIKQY
Procedure: as §1, §2

| EC50 (human TLR7; Table 1a) [nM] | EC50 (human TLR8; Table 1a) [nM] | EC50 (human TLR8; Table 1c) [nM] | SMILES | other results |
| --- | --- | --- | --- | --- |
| > 9000 | 9760 |  | CCCN(CCC)C(=O)C1=Cc2ccc(-c3ccc(CN)c(S(=O)(=O)N4CC(CO)C4)c3)cc2N=C(N)C1 [Bz-2] |  |
| > 9000 | 265 |  | CCCN(CCC)C(=O)C1=Cc2ccc(-c3cccc(S(=O)(=O)N4CC(CNC(=O)OC(C)(C)C)C4)c3)cc2N=C(N)C1 [Bz-6, tert-butyl ((1-((3-(2-amino-4-(dipropylcarbamoyl)-3H-benzo[b]azepin-8-yl)phenyl)sulfonyl)azetidin-3-yl)methyl)carbamate] |  |
| > 9000 | > 9000 |  | CCCN(CCNC(=O)OC(C)(C)C)C(=O)C1=Cc2ccc(-c3cccc(S(=O)(=O)N4CC(CO)C4)c3)cc2N=C(N)C1 [Bz-10, tert-butyl (2-(2-amino-8-(3-((3-(hydroxymethyl)azetidin-1-yl)sulfonyl)phenyl)-N-propyl-3H-benzo[b]azepine-4-carboxamido)ethyl)carbamate] |  |
|  |  | 1320 | CCCN(CCC)C(=O)C1=Cc2ccc(-c3cccc(S(=O)(=O)N4CC5(CNC5)C4)c3)cc2N=C(N)C1 [Bz-52] |  |
|  |  | 249 | CCCN(CCC)C(=O)C1=Cc2ccc(-c3cccc(S(=O)(=O)N4CC5(CCNC5)C4)c3)cc2N=C(N)C1 [Bz-53] |  |
|  |  | 198 | CCCN(CCC)C(=O)C1=Cc2ccc(-c3cccc(S(=O)(=O)N4CCC(N)CC4)c3)cc2N=C(N)C1 [Bz-54] |  |
|  |  | 111 | CCCN(CCC)C(=O)C1=Cc2ccc(-c3cccc(S(=O)(=O)N4[C@@H]5CNC[C@@H]54)c3)cc2N=C(N)C1 (stereo partly drawn) [Bz-56] |  |
|  |  | 741 | CCCN(CCC)C(=O)C1=Cc2ccc(-c3cccc(S(=O)(=O)N4CCC5(CCNC5)C4)c3)cc2N=C(N)C1 (stereo not drawn) [Bz-57] |  |
|  |  | 288 | CCCN(CCOC)C(=O)C1=Cc2ccc(-c3cccc(S(=O)(=O)N4CC(CO)C4)c3)cc2N=C(N)C1 [Bz-60] |  |
|  |  | 2750 | CCCN(NCC)C(=O)C1=Cc2ccc(-c3cccc(S(=O)(=O)N4CC(CO)C4)c3)cc2N=C(N)C1 [Bz-71] |  |
|  |  | 4250 | CCCNN(CC)C(=O)C1=Cc2ccc(-c3cccc(S(=O)(=O)N4CC(CO)C4)c3)cc2N=C(N)C1 [Bz-72] |  |

More lines, now with the values behind:

| SMILES | EC50 (human TLR7; Table 1a) [nM] | EC50 (human TLR8; Table 1a) [nM] | EC50 (human TLR8; Table 1c) [nM] | other results |
| --- | --- | --- | --- | --- |
| CCCN(CCCNC(=O)OC(C)(C)C)C(=O)C1=Cc2ccc(-c3cccc(S(=O)(=O)N4CC(CO)C4)c3)cc2N=C(N)C1 [Bz-1, tert-butyl N-[3-[[2-amino-8-[3-[3-(hydroxymethyl)azetidin-1-yl]sulfonylphenyl]-3H-1-benzazepine-4-carbonyl]-propyl-amino]propyl]carbamate] | 571 | 106 |  |  |
| CCCN(CCCN(C)C(=O)OC(C)(C)C)C(=O)C1=Cc2ccc(-c3cccc(S(=O)(=O)N4CC(CO)C4)c3)cc2N=C(N)C1 [Bz-3, tert-butyl (3-(2-amino-8-(3-((3-(hydroxymethyl)azetidin-1-yl)sulfonyl)phenyl)-N-propyl-3H-benzo[b]azepine-4-carboxamido)propyl)(methyl)carbamate] | 545 | 4310 |  |  |
| CCCN(CCCNC(=O)OC(C)(C)C)C(=O)C1=Cc2ccc(-c3ccc(C(=O)N4CCCC4)cc3)cc2N=C(N)C1 [Bz-4] | 1480 | 1680 |  |  |
| CCCN(CCC)C(=O)C1=Cc2c(CCCCNC(=O)OC(C)(C)C)cc(-c3cccc(S(=O)(=O)N4CC(CO)C4)c3)cc2N=C(N)C1 [Bz-5, tert-butyl (4-(2-amino-4-(dipropylcarbamoyl)-8-(3-((3-(hydroxymethyl)azetidin-1-yl)sulfonyl)phenyl)-3H-benzo[b]azepin-6-yl)butyl)carbamate] | 155 | 256 |  |  |
| CCCN(CCC)C(=O)C1=Cc2ccc(C(=O)Nc3cncc(CNC(=O)OC(C)(C)C)c3)cc2N=C(N)C1 [Bz-7] | > 9000 | 4.28 |  |  |
| CCCN(CCCN(C)C(=O)OC(C)(C)C)C(=O)C1=Cc2ccc(-c3ccc(C(=O)N4CCCC4)cc3)cc2N=C(N)C1 [Bz-8] | 3370 | > 9000 |  |  |
| CCCN(CCCCCNC(=O)OC(C)(C)C)C(=O)C1=Cc2ccc(-c3cccc(S(=O)(=O)N4CC(CO)C4)c3)cc2N=C(N)C1 [Bz-9, tert-butyl N-[5-[[2-amino-8-[3-[3-(hydroxymethyl)azetidin-1-yl]sulfonylphenyl]-3H-1-benzazepine-4-carbonyl]-propyl-amino]pentyl]carbamate] | 8650 | 629 |  |  |
| CCCN(CCCNC(=O)NC(C)(C)C)C(=O)C1=Cc2ccc(-c3cccc(S(=O)(=O)N4CC(CO)C4)c3)cc2N=C(N)C1 [Bz-11, 2-amino-N-[3-(tert-butylcarbamoylamino)propyl]-8-[3-[3-(hydroxymethyl)azetidin-1-yl]sulfonylphenyl]-N-propyl-3H-1-benzazepine-4-carboxamide] | 7840 | 1390 |  |  |
| CCCN(CCCNC(=O)Nc1cccc(C#N)c1)C(=O)C1=Cc2ccc(-c3cccc(S(=O)(=O)N4CC(CO)C4)c3)cc2N=C(N)C1 [Bz-12, 2-amino-N-[3-[(3-cyanophenyl)carbamoylamino]propyl]-8-[3-[3-(hydroxymethyl)azetidin-1-yl]sulfonylphenyl]-N-propyl-3H-1-benzazepine-4-carboxamide] | 2490 | 2380 |  |  |
| CCCN(Cc1ccc(CN2CCN(C(=O)OC(C)(C)C)CC2)cc1)C(=O)C1=Cc2ccc(-c3cccc(S(=O)(=O)N4CC(CO)C4)c3)cc2N=C(N)C1 [Bz-30, tert-butyl 4-[[4-[[[2-amino-8-[3-[3-(hydroxymethyl)azetidin-1-yl]sulfonylphenyl]-3H-1-benzazepine-4-carbonyl]-propyl-amino]methyl]phenyl]methyl]piperazine-1-carboxylate] |  |  |  | EC50 (human TLR7; Table 1b): > 9000 nM |
| CCCN(Cc1ccc(CN2CCN(C(=O)OC(C)(C)C)CC2)cc1)C(=O)C1=Cc2ccc(-c3cccc(S(=O)(=O)N4CC(CO)C4)c3)cc2N=C(N)C1 [Bz-44] |  |  |  | EC50 (human TLR7; Table 1c): ≥ 9000 nM |
| CCCN(CCC)C(=O)C1=Cc2ccc(-c3c(C)n[nH]c3C)cc2N=C(N)C1 [Bz-45] |  |  | 345 |  |
| CCCN(CCC)C(=O)C1=Cc2ccc(-c3c(C)nn(S(=O)(=O)N4CC(CO)C4)c3C)cc2N=C(N)C1 [Bz-48] |  |  | 499 |  |
| CCCN(Cc1ccc(CN)cc1)C(=O)C1=Cc2ccccc2N=C(N)C1 [Bz-59] |  |  | 870 |  |
| CCCN(CCC)C(=O)C1=Cc2ccc(CCCCCN)cc2N=C(N)C1 [Bz-74] |  |  | 2560 |  |
| CCCN(CCC(F)(F)F)C(=O)C1=Cc2ccc(C(=O)Nc3ccccc3)cc2N=C(N)C1 [Bz-75] |  |  | 246 |  |
